The nature of series [1]: Terminal half life in Sprague-Dawley rat at 2 mg/kg, iv. It counts as ADME, organism-based. Set-up: dose 2 mg/kg, route intravenous. The conditions noted are these: in vivo, read-out: beta t1/2 (converted).
Series [2] is described as follows: Clearance in Sprague-Dawley rat at 2 mg/kg, iv. Format: ADME, organism-based. Further details: dose 2 mg/kg, route intravenous. The conditions noted are these: in vivo.
A short description of series [3]: Volume of distribution at steady state in Sprague-Dawley rat at 2 mg/kg, iv. It counts as ADME, organism-based. Further details: dose 2 mg/kg, route intravenous. The conditions noted are these: in vivo, read-out: Vdss.
Series [4] is described as follows: Oral bioavailability in Sprague-Dawley rat at 10 mg/kg. Format: ADME, organism-based. The conditions noted are these: in vivo.
The nature of series [5]: AUC in Sprague-Dawley rat at 10 mg/kg, po. It counts as ADME, organism-based. Further details: dose 10 mg/kg, route oral. The settings on record: plasma.
Series [6] can be described thus: Cmax in Sprague-Dawley rat at 10 mg/kg, po. Format: ADME, organism-based. Further details: dose 10 mg/kg, route oral. The settings on record: in vivo.
For series [7], the target named is T1, Arachidonate 5-lipoxygenase-activating protein (Homo sapiens, UniProt P20292).
T1 sequence (P20292 whole entry): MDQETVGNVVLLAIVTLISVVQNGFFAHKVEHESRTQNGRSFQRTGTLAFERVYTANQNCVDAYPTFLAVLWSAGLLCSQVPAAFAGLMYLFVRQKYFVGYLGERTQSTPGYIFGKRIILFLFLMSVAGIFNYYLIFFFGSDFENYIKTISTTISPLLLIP
The series can be described thus: Displacement of [3H]-3-[5-(pyrid-2-ylmethoxy)-3-tert-butylthio-1-benzylindol-2-yl]-2,2-dimethylpropionic acid from FLAP in human polymorphonuclear cell membranes after 1 hr by scintillation counting. (In general: In a radioligand displacement assay an active substance lowers the binding of a labelled ligand.)

In series [8] the target is T1, Arachidonate 5-lipoxygenase-activating protein. Kind of series: Inhibition of FLAP in human whole blood assessed as inhibition of calcium ionophore A23187-induced LTB4 production preincubated for 15 mins by ELISA.
Series [9] shares this target. Kind of series: Inhibition of FLAP in human whole blood assessed as inhibition of calcium ionophore A23187-induced LTB4 production preincubated for 5 hrs by ELISA.
For series [10] the target is unchanged. Kind of series: Inhibition of FLAP in human peripheral leukocytes assessed as inhibition of calcium ionophore A23187-induced LTB4 production after 10 mins by ELISA. It counts as cell-based. (In general: ELISA stands for enzyme-linked immunosorbent assay.)
Series [11] has as its target T2, Arachidonate 5-lipoxygenase-activating protein (Homo sapiens) (UniProt P20292).
T2 sequence (whole entry): T1 sequence (P20292 whole entry)
Kind of series: Ratio of IC50 for FLAP in human whole blood assessed as inhibition of calcium ionophore A23187-induced LTB4 production preincubated for 15 mins to IC50 for FLAP in human whole blood assessed as inhibition of calcium ionophore A23187-induced LTB4 production preincubated for 5 hrs.

The target in another series is Cytochrome P450 3A4 (Homo sapiens, UniProt P08684). Kind of series: Inhibition of human CYP3A4. It counts as ADME.
Another series addresses Cytochrome P450 2C9 (Homo sapiens, UniProt P11712). The series can be described thus: Inhibition of human CYP2C9. It counts as ADME.
The target in a further series is Cytochrome P450 2D6 (Homo sapiens, UniProt P10635). The series can be described thus: Inhibition of human CYP2D6. It counts as ADME.
Series [12] addresses T3, Prostaglandin G/H synthase 1 (Homo sapiens, UniProt P23219). Kind of series: Inhibition of COX1-mediated TXB2 production in human whole blood after 15 mins by competitive enzyme immunoassay.
In series [13] the target is T3, Prostaglandin G/H synthase 1. Kind of series: Inhibition of COX1-mediated TXB2 production in human whole blood after 5 hrs by competitive enzyme immunoassay.
Series [14] concerns the target T4, Arachidonate 5-lipoxygenase-activating protein (Rattus norvegicus, UniProt P20291).
T4 sequence (P20291 whole entry): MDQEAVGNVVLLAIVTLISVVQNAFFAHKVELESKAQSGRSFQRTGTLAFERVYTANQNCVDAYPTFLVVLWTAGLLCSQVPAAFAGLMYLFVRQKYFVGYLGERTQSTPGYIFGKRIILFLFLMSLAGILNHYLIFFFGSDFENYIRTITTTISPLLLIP
The series can be described thus: Inhibition of FLAP in rat whole blood assessed as inhibition of calcium ionophore A23187-induced LTB4 production preincubated for 15 mins by ELISA. Format: tissue-based.

The target in series [15] is T4, Arachidonate 5-lipoxygenase-activating protein. The series can be described thus: Inhibition of FLAP in rat whole blood assessed as inhibition of calcium ionophore A23187-induced LTB4 production preincubated for 4 hrs by ELISA. Format: tissue-based.
Series [16] deals with T1, Arachidonate 5-lipoxygenase-activating protein. The series can be described thus: Inhibition of FLAP in human whole blood assessed as inhibition of calcium ionophore A23187-induced LTB4 production preincubated for 11 hrs by ELISA.
The target is the same in series [17]. Kind of series: Inhibition of FLAP in human peripheral leukocytes assessed as inhibition of calcium ionophore A23187-induced LTB4 production after 5 mins by ELISA in absence of human serum albumin. It counts as cell-based.
For series [18] the target is unchanged. The series can be described thus: Inhibition of FLAP in human peripheral leukocytes assessed as inhibition of calcium ionophore A23187-induced LTB4 production after 1 hr by ELISA in absence of human serum albumin. Format: cell-based.
The target is the same in series [19]. Kind of series: Inhibition of FLAP in human peripheral leukocytes assessed as inhibition of calcium ionophore A23187-induced LTB4 production after 10 mins by ELISA in presence of 0.5% human serum albumin. Format: cell-based.
The target is the same in series [20]. The series can be described thus: Inhibition of FLAP in human peripheral leukocytes assessed as inhibition of calcium ionophore A23187-induced LTB4 production after 3 hr by ELISA in presence of 0.5% human serum albumin. It counts as cell-based.
Series [21] concerns the target T3, Prostaglandin G/H synthase 1. The series can be described thus: Inhibition of COX1-mediated TXB2 production in human whole blood after 30 mins by competitive enzyme immunoassay.

T3 sequence (P23219 whole entry): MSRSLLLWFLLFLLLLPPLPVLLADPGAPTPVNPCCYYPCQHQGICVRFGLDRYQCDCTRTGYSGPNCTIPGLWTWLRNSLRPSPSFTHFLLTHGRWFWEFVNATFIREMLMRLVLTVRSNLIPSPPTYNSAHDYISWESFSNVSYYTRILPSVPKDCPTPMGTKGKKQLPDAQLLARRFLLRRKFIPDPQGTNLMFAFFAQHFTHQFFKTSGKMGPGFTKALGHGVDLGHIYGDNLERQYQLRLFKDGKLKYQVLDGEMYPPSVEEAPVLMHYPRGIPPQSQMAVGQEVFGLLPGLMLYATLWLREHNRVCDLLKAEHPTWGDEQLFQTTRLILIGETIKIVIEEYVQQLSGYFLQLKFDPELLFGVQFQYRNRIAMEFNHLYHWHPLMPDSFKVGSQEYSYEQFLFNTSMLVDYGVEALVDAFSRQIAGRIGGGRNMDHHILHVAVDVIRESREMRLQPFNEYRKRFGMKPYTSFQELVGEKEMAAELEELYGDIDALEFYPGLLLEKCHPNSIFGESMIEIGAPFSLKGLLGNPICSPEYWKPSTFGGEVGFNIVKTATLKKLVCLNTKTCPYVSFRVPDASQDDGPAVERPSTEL
Sequence of Cytochrome P450 2D6 (P10635 whole entry): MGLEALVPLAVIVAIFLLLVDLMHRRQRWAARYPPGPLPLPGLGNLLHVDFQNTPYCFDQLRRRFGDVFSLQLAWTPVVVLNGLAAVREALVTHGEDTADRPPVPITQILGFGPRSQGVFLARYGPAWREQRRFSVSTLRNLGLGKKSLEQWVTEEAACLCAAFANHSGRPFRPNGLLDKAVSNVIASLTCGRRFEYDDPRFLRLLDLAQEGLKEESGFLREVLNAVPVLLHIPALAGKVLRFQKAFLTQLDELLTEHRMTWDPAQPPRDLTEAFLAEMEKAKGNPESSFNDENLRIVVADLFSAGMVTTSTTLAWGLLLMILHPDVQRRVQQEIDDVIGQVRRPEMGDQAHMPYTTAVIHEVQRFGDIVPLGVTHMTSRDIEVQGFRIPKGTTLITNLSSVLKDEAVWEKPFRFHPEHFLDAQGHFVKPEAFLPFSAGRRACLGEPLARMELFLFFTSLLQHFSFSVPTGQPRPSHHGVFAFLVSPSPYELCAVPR
Sequence of Cytochrome P450 2C9 (P11712 whole entry): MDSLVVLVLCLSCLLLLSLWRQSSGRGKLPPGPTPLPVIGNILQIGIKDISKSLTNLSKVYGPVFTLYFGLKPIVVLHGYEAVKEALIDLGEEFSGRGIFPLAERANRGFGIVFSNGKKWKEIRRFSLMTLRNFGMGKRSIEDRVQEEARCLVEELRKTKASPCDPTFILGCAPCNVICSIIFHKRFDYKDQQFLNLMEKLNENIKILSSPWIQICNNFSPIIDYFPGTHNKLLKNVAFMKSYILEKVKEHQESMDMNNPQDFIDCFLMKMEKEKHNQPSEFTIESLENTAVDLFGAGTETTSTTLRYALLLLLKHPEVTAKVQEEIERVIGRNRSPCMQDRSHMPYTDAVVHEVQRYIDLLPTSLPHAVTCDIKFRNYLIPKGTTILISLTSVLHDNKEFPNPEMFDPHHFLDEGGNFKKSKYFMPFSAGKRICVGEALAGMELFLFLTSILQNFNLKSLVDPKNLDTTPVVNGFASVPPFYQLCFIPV
Sequence of Cytochrome P450 3A4 (P08684 whole entry): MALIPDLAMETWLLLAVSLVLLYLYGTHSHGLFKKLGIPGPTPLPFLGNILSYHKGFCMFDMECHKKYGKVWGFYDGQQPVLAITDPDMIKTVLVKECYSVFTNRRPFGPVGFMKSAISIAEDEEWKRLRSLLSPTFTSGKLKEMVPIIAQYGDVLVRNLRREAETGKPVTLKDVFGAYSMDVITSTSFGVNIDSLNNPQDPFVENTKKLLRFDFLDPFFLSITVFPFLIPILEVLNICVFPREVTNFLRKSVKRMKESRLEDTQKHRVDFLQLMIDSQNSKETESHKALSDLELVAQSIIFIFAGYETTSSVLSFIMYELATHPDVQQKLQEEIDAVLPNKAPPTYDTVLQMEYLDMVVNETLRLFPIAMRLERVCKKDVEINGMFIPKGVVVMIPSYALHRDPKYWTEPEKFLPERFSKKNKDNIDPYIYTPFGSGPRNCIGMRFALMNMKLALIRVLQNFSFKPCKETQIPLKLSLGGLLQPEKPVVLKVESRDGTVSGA

As for `CCOc1ccc(-c2ccc(Cn3c(CC(C)(C)C(=O)[O-])c(SC(C)(C)C)c4cc(OCc5ccc(C)cn5)ccc43)cc2)cn1.[Na+]` [FIBOFLAPON SODIUM], the half-life in series [1] is 2 h. In addition, the clearance in series [2] came out at 5.2 mL/min/kg. Besides, the Vd in series [3] stood at 0.7 L/kg. The bioavailability in series [4] turned out to be 76%. The molecule also yielded an exposure (AUC) in [5] of 26000 ng·h/mL. The highest level in series [6] (Cmax) was 12.2 µM.
Regarding `COc1ccc(-c2ccc(Cn3c(CC(C)(C)C(=O)O)c(SC(C)(C)C)c4cc(OCc5ccc6cc(F)ccc6n5)ccc43)cc2)cn1`, the half-inhibitory concentration (IC50) in [7] was 7.6 nM; in series [8], 747 nM; in series [9], 289 nM; in series [10], 0.7 nM. Besides, the Ratio IC50 in [11] came to 2.
`Cc1ccc(COc2ccc3c(c2)c(SC(C)(C)C)c(CC(C)(C)C(=O)O)n3Cc2ccc(-c3ccc(C)cn3)cc2)nc1`: the IC50 in series [7] is 2.2 nM; in series [8], 283 nM; in series [9], 130 nM; in series [10] it was 0.5 nM; on Cytochrome P450 3A4, 8500 nM; against Cytochrome P450 2C9, 12000 nM. This molecule displayed an IC50 at Cytochrome P450 2D6 above 50000 nM.
Consider `Cc1ccc(COc2ccc3c(c2)c(SC(C)(C)C)c(CC(C)(C)C(=O)O)n3Cc2ccc(-c3ccc(=O)[nH]c3)cc2)nc1`, for which the IC50 in [7] was found to be 8.3 nM; in [8], 10000 nM; in series [9] it was 1280 nM; in [10], 94 nM. Also, the Ratio IC50 in [11] was determined as 8.
As to `COc1cnc(-c2ccc(Cn3c(CC(C)(C)C(=O)[O-])c(SC(C)(C)C)c4cc(OCc5ccc(C)cn5)ccc43)cc2)nc1.[Na+]`, in [1], the half-life is 1.7 h. Besides, the clearance in series [2] was 3.1 mL/min/kg. For the same molecule, in series [3], the Vd was 0.18 L/kg. Further, in [4], the bioavailability was determined as 100%. The molecule further showed an AUC in series [5] of 63000 ng·h/mL. In [6], this molecule came in with a Cmax of 30.6 µM.
With `COc1ccc(-c2ccc(Cn3c(CC(C)(C)C(=O)O)c(SC(C)(C)C)c4cc(OCc5ccc(C)cn5)ccc43)cc2)cn1`, the IC50 in series [7] was 1.7 nM; in [8], 328 nM; in [9], 87 nM; in series [10], 0.5 nM; in series [12], 12300 nM; in [13], 17300 nM.
Consider `Cc1ccc(COc2ccc3c(c2)c(SC(C)(C)C)c(CC(C)(C)C(=O)[O-])n3Cc2ccc(-c3ccc(F)cn3)cc2)nc1.[Na+]`, for which, in series [1], the half-life is 1.9 h. In addition, the clearance in [2] stood at 4 mL/min/kg. In [3], the Vd is 0.38 L/kg. Moreover, the bioavailability in series [4] was 100%. In addition, the AUC in series [5] was found to be 77000 ng·h/mL. In series [6], this molecule returned a Cmax of 23.3 µM.
Turning to `Cc1ccc(COc2ccc3c(c2)c(SC(C)(C)C)c(CC(C)(C)C(=O)[O-])n3Cc2ccc(-c3ccc(C)cn3)cc2)nc1.[Na+]`, the half-life in series [1] was 1 h. In [2], this molecule showed a clearance of 3 mL/min/kg. In addition, the Vd in series [3] is 0.16 L/kg. Further, the bioavailability in series [4] was 40%. The AUC in [5] turned out to be 26000 ng·h/mL. Besides, the peak level in series [6] (Cmax) was 14.6 µM.
Take `CC(C)(C)Sc1c(CC(C)(C)C(=O)O)n(Cc2ccc(Cl)cc2)c2ccc(OCc3ccc4ccccc4n3)cc12` [QUIFLAPON SODIUM]: the concentration for half-maximal inhibition (IC50) in series [7] was determined as 1.9 nM; in [14], 117 nM; in [15], 10 nM; in series [8], 536 nM; in [9] it was 108 nM; in series [16], 80 nM. In addition, the IC50 in [10] was determined as 0.5 nM; in [17], 1 nM; in [18], 1 nM; in [19], 66 nM; in series [20], 12 nM.
On to `COc1cnc(-c2ccc(Cn3c(CC(C)(C)C(=O)O)c(SC(C)(C)C)c4cc(OCc5ccc(C)cn5)ccc43)cc2)nc1`, for which the IC50 stood at 161 nM in [8]; 81 nM in [9]; 0.6 nM in series [10]; 25000 nM in series [21]; 8800 nM against Cytochrome P450 3A4; 4500 nM against Cytochrome P450 2C9. The IC50 on Cytochrome P450 2D6 is above 50000 nM.
Take `COc1ccc(-c2ccc(Cn3c(CC(C)(C)C(=O)O)c(SC(C)(C)C)c4cc(OCc5ccccn5)ccc43)cc2)cn1`: the IC50 in series [8] is 349 nM; in [9], 149 nM; in series [10], 0.5 nM; in [17], 1.2 nM; in [18] it was 1.1 nM; in series [19] it was 10 nM. In addition, in series [20], the IC50 amounted to 14 nM.
Take `CC(C)c1ccc2c(c1)c(SC(C)(C)C)c(CC(C)(C)C(=O)O)n2Cc1ccc(Cl)cc1`: the IC50 stood at 1400 nM in series [8]; 1100 nM in series [9]; 1000 nM in [16]; 2.2 nM in series [17]; 5.7 nM in series [18]; 19 nM in [19]. Further, in series [20], the IC50 was found to be 27 nM.

The clearance is a measure of how efficiently the substance is removed, as volume per time. A low value points to inefficient removal. By bioavailability is commonly meant dose-corrected exposure relative to a reference, in per cent. A lower bioavailability goes with poor availability. One may read the AUC as the area under the concentration-time curve, a measure of exposure. A low value points to less exposure. What is called Cmax is the peak of the concentration-time curve. The term IC50 denotes the concentration that inhibits the measured activity by half.
